Key:
[1] = molecular target: D(3) dopamine receptor (Homo sapiens, UniProt P35462)
[2] = molecular target: 5-hydroxytryptamine receptor 2A (Homo sapiens, UniProt P28223)
[3] = molecular target: 5-hydroxytryptamine receptor 1E (Homo sapiens, UniProt P28566)
[4] = molecular target: Beta-2 adrenergic receptor (Homo sapiens, UniProt P07550)
[5] = molecular target: T1, Adenosine receptor A1 (Rattus norvegicus, UniProt P25099)
T1 sequence (P25099 whole entry): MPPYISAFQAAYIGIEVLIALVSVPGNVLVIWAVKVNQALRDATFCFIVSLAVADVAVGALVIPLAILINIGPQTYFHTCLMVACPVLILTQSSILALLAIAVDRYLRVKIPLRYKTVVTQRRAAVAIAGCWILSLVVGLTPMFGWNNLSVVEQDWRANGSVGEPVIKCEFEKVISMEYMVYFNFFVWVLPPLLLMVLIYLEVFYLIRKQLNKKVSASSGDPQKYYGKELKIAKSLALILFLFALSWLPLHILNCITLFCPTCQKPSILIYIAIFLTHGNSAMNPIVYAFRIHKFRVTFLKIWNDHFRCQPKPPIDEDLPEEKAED

[6] = molecular target: D(2) dopamine receptor (Homo sapiens, UniProt P14416)
D(2) dopamine receptor, sequence (P14416 whole entry): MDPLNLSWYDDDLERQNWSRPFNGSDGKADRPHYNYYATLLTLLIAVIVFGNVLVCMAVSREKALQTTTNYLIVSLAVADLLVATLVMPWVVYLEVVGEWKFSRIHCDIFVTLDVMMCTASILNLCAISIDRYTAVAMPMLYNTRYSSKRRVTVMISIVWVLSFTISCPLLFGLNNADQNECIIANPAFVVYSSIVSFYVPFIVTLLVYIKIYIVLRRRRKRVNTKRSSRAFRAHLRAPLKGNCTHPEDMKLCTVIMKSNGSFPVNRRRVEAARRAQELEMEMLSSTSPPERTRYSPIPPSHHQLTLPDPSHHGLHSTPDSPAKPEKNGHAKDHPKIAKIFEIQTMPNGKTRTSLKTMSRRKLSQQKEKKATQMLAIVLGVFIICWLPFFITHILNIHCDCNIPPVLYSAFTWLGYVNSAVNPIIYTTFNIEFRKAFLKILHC

[7] = molecular target: D(1A) dopamine receptor (Homo sapiens, UniProt P21728)
D(1A) dopamine receptor, sequence (P21728 whole entry): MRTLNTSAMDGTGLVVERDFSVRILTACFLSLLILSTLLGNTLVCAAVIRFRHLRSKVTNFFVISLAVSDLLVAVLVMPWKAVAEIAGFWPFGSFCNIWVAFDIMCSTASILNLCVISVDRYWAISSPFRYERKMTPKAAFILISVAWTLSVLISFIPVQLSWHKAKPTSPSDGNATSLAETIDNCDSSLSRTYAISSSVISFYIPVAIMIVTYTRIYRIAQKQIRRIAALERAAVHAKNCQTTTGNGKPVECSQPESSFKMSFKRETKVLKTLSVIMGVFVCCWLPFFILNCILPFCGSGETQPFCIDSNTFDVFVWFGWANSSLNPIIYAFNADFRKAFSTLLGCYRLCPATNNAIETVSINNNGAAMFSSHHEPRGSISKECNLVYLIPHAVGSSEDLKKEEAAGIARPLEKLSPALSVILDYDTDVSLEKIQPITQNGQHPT

[8] = molecular target: Gamma-aminobutyric acid receptor subunit alpha-1 (Rattus norvegicus, UniProt P62813)
Gamma-aminobutyric acid receptor subunit alpha-1 (Rattus norvegicus, UniProt P62813), sequence (P62813 whole entry): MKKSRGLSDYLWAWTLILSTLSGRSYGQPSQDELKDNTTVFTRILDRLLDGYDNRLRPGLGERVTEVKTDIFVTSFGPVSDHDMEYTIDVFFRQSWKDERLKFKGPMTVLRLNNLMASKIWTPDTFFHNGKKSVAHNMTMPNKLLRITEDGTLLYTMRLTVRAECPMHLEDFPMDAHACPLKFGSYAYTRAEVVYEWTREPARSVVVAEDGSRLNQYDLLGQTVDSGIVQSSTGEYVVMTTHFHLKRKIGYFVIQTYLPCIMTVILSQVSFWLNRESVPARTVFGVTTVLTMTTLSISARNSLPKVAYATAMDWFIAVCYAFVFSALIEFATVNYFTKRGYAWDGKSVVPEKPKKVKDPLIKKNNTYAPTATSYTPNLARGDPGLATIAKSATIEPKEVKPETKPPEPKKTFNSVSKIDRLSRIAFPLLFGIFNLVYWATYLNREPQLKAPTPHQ

[9] = molecular target: 5-hydroxytryptamine receptor 1D (Cavia porcellus, UniProt Q60484)
5-hydroxytryptamine receptor 1D, sequence (Q60484 whole entry): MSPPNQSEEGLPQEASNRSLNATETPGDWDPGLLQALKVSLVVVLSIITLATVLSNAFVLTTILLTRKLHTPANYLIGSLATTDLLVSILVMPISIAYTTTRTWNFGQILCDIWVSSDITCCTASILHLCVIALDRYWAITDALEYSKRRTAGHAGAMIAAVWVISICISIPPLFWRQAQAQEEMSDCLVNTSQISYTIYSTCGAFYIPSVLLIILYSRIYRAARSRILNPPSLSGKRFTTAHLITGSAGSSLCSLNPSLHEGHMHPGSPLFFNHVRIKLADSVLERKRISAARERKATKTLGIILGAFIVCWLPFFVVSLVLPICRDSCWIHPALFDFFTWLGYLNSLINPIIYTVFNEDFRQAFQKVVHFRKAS

[10] = molecular target: T2, 5-hydroxytryptamine receptor 2C (Sus scrofa, UniProt G7ZKZ7)
T2 sequence (G7ZKZ7 whole entry): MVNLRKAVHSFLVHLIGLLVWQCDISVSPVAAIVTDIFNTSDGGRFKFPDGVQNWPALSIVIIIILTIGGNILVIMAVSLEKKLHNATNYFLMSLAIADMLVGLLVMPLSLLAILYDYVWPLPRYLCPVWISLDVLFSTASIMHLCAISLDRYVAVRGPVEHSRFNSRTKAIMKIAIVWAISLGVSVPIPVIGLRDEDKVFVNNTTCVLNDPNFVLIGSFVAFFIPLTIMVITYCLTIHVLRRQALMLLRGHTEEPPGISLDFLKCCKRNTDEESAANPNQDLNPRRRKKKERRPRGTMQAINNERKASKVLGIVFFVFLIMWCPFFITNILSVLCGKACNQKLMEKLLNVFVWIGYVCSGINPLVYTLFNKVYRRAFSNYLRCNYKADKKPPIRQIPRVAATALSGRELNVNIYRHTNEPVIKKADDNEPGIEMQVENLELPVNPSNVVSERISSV

[11] = molecular target: T3, 5-hydroxytryptamine receptor 3A (Rattus norvegicus, UniProt P35563)
T3 sequence (P35563 whole entry): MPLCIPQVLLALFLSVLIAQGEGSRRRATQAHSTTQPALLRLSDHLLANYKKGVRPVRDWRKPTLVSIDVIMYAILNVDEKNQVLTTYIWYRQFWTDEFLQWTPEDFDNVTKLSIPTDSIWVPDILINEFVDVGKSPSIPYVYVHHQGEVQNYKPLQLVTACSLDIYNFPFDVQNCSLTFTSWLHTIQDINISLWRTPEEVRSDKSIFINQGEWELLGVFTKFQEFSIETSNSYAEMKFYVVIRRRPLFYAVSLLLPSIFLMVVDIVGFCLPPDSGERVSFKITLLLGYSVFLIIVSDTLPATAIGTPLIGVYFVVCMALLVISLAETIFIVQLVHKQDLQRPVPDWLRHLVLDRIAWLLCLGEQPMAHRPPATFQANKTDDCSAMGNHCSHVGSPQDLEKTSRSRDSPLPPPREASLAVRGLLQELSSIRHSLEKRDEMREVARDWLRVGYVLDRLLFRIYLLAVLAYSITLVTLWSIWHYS

[12] = molecular target: T4, Solute carrier family 22 member 1 (Rattus norvegicus, UniProt Q63089)
T4 sequence (Q63089 whole entry): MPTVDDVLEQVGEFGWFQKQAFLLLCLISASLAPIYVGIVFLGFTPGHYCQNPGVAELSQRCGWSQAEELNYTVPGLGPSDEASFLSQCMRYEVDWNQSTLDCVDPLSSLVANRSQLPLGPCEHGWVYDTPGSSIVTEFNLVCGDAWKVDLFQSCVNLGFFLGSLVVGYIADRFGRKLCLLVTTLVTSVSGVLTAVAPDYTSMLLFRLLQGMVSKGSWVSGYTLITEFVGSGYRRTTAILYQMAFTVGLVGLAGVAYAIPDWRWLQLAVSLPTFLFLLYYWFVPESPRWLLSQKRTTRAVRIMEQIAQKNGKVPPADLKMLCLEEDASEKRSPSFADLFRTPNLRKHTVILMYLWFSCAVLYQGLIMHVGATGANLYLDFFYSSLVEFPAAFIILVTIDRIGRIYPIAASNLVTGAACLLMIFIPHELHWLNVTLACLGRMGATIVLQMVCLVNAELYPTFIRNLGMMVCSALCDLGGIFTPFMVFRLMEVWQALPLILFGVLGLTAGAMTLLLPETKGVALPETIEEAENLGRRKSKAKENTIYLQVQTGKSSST

[13] = molecular target: T5, Adrenergic alpha2 receptor (Mesocricetus auratus, UniProt Q60533)
T5 sequence (Q60533 whole entry): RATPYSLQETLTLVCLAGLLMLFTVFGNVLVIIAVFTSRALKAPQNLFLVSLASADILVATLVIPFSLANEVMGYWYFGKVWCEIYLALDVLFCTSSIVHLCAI

[14] = molecular target: Beta-1 adrenergic receptor (Homo sapiens, UniProt P08588)
Beta-1 adrenergic receptor, sequence (P08588 whole entry): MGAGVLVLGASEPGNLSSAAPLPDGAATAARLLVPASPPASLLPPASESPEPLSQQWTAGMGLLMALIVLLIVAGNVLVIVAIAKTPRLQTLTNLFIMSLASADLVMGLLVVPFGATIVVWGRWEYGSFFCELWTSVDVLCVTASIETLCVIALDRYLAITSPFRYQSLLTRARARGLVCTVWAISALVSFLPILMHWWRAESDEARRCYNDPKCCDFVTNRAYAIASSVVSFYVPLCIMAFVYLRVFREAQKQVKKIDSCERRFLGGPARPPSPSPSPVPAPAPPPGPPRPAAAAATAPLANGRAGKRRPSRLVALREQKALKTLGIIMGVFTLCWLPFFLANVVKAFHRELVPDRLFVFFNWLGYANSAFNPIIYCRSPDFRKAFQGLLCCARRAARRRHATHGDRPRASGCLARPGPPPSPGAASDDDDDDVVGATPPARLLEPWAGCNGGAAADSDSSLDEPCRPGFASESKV

[15] = molecular target: T6, Gamma-aminobutyric acid receptor subunit alpha-1 (Homo sapiens, UniProt P14867)
T6 sequence (P14867 whole entry): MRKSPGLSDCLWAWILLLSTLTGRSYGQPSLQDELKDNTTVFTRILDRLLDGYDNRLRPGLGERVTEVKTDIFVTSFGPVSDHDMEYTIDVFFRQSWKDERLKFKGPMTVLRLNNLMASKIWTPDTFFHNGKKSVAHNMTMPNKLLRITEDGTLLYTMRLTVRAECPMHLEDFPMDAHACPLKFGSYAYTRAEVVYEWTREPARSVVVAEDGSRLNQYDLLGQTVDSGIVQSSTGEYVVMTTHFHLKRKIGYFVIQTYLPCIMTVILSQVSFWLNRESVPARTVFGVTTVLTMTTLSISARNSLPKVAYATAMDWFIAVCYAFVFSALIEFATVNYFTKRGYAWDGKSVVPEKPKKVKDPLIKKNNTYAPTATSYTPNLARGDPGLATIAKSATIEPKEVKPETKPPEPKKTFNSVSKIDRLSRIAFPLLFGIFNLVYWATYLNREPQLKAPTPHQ

D(3) dopamine receptor, sequence (P35462 as listed by the source): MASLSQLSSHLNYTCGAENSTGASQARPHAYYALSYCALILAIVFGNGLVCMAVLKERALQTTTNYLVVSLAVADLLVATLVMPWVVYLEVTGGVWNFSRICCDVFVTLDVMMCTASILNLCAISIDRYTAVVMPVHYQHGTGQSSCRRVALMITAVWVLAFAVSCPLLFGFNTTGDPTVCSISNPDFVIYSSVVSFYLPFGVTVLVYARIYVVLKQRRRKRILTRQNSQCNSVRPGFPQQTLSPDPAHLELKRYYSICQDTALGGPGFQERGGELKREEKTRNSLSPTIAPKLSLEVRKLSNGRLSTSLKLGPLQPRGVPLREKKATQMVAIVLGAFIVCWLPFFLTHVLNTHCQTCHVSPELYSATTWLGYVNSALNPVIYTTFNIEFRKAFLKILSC
5-hydroxytryptamine receptor 1E, sequence (P28566 whole entry): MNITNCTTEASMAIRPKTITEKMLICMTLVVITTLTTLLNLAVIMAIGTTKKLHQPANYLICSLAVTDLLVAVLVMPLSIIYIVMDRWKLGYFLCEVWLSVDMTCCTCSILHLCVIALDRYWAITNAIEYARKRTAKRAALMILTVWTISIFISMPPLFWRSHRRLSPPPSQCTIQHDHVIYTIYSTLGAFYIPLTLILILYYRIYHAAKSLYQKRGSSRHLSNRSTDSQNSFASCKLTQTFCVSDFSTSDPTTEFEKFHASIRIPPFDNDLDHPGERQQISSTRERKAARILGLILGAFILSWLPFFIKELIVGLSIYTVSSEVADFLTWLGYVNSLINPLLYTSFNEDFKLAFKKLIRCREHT
Beta-2 adrenergic receptor, sequence (P07550 whole entry): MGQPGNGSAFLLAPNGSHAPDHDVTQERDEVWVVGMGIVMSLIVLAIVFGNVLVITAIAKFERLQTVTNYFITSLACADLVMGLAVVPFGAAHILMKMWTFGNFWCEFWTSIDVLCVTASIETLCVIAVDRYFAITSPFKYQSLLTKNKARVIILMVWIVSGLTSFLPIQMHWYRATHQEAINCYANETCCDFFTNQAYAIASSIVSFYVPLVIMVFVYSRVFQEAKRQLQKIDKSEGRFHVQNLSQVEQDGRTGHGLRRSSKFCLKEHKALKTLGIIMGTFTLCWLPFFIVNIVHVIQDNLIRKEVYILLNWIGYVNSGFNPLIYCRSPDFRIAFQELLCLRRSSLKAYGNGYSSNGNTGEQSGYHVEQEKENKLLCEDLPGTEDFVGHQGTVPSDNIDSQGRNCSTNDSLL
5-hydroxytryptamine receptor 2A, sequence (P28223 whole entry): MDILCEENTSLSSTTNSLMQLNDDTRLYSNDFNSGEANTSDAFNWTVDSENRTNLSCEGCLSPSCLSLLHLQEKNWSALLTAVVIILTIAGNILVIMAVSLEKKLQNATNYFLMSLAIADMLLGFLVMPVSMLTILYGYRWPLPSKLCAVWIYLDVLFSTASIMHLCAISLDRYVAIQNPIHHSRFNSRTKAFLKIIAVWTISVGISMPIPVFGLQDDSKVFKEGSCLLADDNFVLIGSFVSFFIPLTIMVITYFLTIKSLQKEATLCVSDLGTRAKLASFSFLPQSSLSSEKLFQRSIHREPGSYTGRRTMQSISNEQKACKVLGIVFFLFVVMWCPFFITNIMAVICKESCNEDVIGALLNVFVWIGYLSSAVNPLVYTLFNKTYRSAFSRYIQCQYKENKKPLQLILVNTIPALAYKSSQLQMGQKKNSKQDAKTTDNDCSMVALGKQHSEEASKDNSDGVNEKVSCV

CCCCN1CCC(COC(=O)c2cc(Cl)c(N)c3c2OCCO3)CC1 [CAS_121881] gave a Ki [1] of 1 µM, a Ki [2] of 1 µM and a Ki [3] greater than 10 µM. The Ki [4] was 1 µM, the Ki [5] was greater than 10 µM and the Ki [6] was greater than 10 µM. The Ki [7] was 1 µM, the Ki [8] was greater than 10 µM and the Ki [9] was greater than 10 µM. For the same molecule, the Ki [10] was 0.126 µM, the Ki [11] was 0.398 µM and the Ki [12] was 1 µM. For the same molecule, the Ki [13] was 1 µM, the Ki [14] was 1 µM and the Ki [15] was greater than 10 µM.

From BindingDB's records for doi:10.1111/j.1476-5381.1994.tb13148.x (Smithkline Beecham Pharmaceuticals, 1994)
